Results as given in ChEMBL document CHEMBL5727593, “Use of physiological cooling active ingredients, and agents containing such active ingredients” (2020).

Molecular target: Transient receptor potential cation channel subfamily M member 8 (Homo sapiens, UniProt Q7Z2W7)
Assay: The agonisation or antagonisation of the receptor can be quantified by means of a Ca2+-sensitive dye (e.g. FURA, Fluo-4, etc.). Agonists on their own bring about an increase in the Ca2+-signal; antagonists in the presence of, for example, menthol bring about a reduction in the Ca2+-signal (in each case detected by means of the Fluo-4 dye, which due to the Ca2+ has other fluorescent properties).To begin with, in a manner known per se, in cell culture flasks a fresh culture of transformed HEK cells is prepared. The HEK293-TRPM8 test cells are removed using trypsin from the cell culture flasks and 40 000 cells/well are sown with 100 μl medium in 96-well plates (Greiner #655948 Poly-D-lysine coated). In order to induce the TRPM8 receptor the growth medium tetracycline is mixed in (DMEM/HG, 10% FCS tetracycline-free, 4 mM L-glutamine, 15 μg/ml blasticidin, 100 μg/ml hygromycin B, 1 μg/ml tetracycline). The next day the cells are charged with Fluo-4Am dye and the test is performed. The procedure is as follows: Addition of 100 μl/well of dye solution Ca-4 Kit (RB 141, Molecular Devices) per 100 μl of medium (DMEM/HG, 10% FCS tetracycline-free, 4 mM L-glutamine, 15 μg/ml blasticidin, 100 μg/ml hygromycin B, 1 μg/ml tetracycline). Incubation in the incubator for 30 minutes/37° C./5% CO2, 30 minutes/RT. […]

Transient receptor potential cation channel subfamily M member 8, sequence (Q7Z2W7 whole entry): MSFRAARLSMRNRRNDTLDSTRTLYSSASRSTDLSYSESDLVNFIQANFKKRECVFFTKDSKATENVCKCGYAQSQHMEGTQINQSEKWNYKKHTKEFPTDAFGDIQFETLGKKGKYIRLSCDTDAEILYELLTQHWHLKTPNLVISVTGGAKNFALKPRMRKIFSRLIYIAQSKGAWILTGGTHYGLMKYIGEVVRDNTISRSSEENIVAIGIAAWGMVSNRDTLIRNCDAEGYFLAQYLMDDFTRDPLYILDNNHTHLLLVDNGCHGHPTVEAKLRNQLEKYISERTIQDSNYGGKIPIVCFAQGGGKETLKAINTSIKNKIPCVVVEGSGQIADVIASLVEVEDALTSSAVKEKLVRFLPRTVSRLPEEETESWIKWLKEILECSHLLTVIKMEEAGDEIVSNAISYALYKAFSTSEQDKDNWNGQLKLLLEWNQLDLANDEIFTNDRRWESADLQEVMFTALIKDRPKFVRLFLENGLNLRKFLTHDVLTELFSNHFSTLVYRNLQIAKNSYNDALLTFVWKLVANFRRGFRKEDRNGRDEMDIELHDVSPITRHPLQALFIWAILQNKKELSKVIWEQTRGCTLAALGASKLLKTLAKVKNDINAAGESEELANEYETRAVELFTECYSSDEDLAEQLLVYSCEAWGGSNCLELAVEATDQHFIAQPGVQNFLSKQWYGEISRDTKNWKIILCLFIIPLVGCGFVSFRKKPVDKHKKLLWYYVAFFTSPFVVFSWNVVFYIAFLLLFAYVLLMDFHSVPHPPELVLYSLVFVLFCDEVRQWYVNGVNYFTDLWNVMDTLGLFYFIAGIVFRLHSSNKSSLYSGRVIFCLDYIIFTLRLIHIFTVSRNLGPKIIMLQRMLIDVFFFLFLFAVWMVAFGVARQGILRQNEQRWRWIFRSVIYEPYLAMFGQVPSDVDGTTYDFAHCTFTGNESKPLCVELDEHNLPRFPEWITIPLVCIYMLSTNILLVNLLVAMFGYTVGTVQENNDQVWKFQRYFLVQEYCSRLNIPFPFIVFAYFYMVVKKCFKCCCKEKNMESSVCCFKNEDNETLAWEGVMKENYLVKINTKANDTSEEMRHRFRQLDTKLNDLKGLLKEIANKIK

Row | EC50 | SMILES
1 | 500 nM | COc1cnc(-c2ccccn2)nc1NC(C)C(C)C (configuration not stated)
2 | 3200 nM | COc1cnc(-c2ccccn2)nc1OC(C)C
